For assay [1], the system named is 5-LO. The assay can be described thus: Test c): in vivo zymosan-induced LTB₄ liberation in a subcutaneous air pouch of male rats. The note with it: rat air pouch, 3 hours.
Assay [2] deals with T1, 5-LO (Homo sapiens, UniProt P09917).
T1 construct: incubating a test compound with heparinised human blood, prior to challenge with the calcium ionophore A23187; endogenous in cells; host or cells: heparinised human whole blood (blood cells)
T1 sequence (P09917 1-674): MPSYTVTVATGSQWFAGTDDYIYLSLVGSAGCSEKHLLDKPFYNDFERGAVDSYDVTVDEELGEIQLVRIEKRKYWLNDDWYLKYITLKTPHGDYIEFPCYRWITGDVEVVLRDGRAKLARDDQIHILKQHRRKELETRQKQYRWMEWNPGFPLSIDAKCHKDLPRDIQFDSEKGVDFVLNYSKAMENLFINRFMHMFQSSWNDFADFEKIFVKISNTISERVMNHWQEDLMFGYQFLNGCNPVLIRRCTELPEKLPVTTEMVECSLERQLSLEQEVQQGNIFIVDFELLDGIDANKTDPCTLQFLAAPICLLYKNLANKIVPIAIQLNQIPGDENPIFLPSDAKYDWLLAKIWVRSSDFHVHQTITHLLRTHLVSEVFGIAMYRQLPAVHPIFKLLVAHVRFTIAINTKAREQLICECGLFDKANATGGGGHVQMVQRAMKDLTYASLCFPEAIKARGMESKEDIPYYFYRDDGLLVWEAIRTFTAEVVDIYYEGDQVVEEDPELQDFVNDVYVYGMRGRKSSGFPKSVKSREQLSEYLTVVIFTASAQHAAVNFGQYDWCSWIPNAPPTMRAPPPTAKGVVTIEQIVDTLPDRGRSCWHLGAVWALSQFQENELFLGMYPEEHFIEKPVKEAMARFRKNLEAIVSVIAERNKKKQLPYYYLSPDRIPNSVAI
Kind of assay: Test a): in vitro heparinised human blood challenged with calcium ionophore A23187, radioimmunoassay of LTB₄. The format is cell-based. Particulars: heparinised human blood, A23187 challenge; read-out: IC₅₀ against LTB₄ in test a). An excerpt:
As stated previously, the compounds of the formula I are inhibitors of the enzyme 5-LO. […] J. Pharmacol., 1985, 84, 34P) which involve the use of a protein-LTB₄ conjugate produced using the procedure of Young et alia (Prostaglandins, 1983, 26(4), 605-613). The effects of a test compound on the enzyme cyclooxygenase (which is involved in the alternative metabolic pathway for arachidonic acid and gives rise to prostaglandins, thromboxanes and related metabolites) may be measured at the same time using the specific radioimmunoassay for thromboxane B₂(TxB₂) described by Carey and Forder (see above). This test provides an indication of the effects of a test compound against 5-LO and also cyclooxygenase in the presence of blood cells and proteins. It permits the selectivity of the inhibitory effect on 5-LO or cyclooxygenase to be assessed. • b) An ex vivo assay system, which is a variation of test a) above, involving administration to a group of rats of a test compound (usually orally as the suspension produced when a solution of the test compound in dimethylsulphoxide is added to carboxymethylcellulose), blood collection, heparinisation, challenge with A23187 and radioimmunoassay of LTB₄ and TxB₂. […]

For the compound `COC1(c2cc(F)cc(Sc3ccc(CON=C(C)C)cc3)c2)CCOCC1` [Example 1, acetone 0-{4-[5-fluoro-3-(4-methoxytetrahydropyran-4-yl)phenylthio]benzyl}oxime], in the assay with 5-LO [1], the “oral ED₅₀ versus LTB₄ in test c)” value is reported as “approximately 1 mg/kg”. The IC50 at 5-LO [2] came to 150 nM.

For the compound `COC1(c2cc(F)cc(Sc3ccc(C(C)ON=C(C)C)cc3)c2)CCOCC1` (stereo not drawn) [Example 2, acetone 0-{4-[5-fluoro-3-(4-methoxytetrahydropyran-4-yl)phenylthio)-α-methylbenzyl}oxime], in the assay on 5-LO [1], the “oral ED₅₀ versus LTB₄ in test c)” value is given as “approximately 1.5 mg/kg”. Also, the IC50 at 5-LO [2] was found to be 90 nM.

The record behind these values is patent EP0570196B1, “Oxime derivatives” (ZENECA LIMITED, priority 1992, dated 1993).
